Experiment [1] concerns the target T1, TMEM175 (Homo sapiens, UniProt Q9BSA9).
T1 sequence (Q9BSA9 1-504): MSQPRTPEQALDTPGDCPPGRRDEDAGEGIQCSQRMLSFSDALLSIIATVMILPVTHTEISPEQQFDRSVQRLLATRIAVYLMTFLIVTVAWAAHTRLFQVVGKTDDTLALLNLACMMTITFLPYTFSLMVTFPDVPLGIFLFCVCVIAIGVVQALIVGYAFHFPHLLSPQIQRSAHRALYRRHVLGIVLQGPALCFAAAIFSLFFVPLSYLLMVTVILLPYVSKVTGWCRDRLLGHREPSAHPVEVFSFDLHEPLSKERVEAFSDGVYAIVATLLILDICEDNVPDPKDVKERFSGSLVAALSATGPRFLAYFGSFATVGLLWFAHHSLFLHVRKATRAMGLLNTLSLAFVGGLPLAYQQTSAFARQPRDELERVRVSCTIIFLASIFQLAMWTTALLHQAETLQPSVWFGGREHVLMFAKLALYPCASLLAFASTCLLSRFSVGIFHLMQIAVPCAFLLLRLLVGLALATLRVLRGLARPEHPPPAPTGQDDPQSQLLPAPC
The experiment in a line: SSME K+ flux compound assay on purified lysosomes overexpressing TMEM175 (SURFE2R 96SE). Type of experiment: biochemical. The settings on record: for Relative current / maximum potentiation, SSME: Imax of dose-response curve, baseline 100%, (50 µM). As to the method: In brief, compound measurements using SSME are performed in a three-step process (Figure 6B). First, TMEM175-mediated K^+ translocation is measured through 50 mM K^+ concentration jumps. This represents the baseline current of TMEM175 activity (I0). […] Third, the activation through a 50 mM K^+ concentration jump is repeated, this time in the presence of the compound to record the modulated TMEM175 current (I). In this process, each individual sensor of the 96-well sensor plate is only exposed to a single concentration of the compound. The relative current amplitude I/I0 is used as a measure of the compound effect and averaged across sensors.
We applied 50 mM K^+ concentration jumps in the absence and presence of different compound concentrations to derive information about compound effects on K^+ flux through TMEM175; (B) Time dependence of recorded peak current amplitudes for the complete workflow, which involves multiple sequential measurements. […] The recording of each sensor well starts with the application of a control measurement, rinsing non-activating solution across the sensor (baseline recording). Afterwards, we performed three solution exchange measurements from 50 mM NaCl to 50 mM KCl to measure K^+ flux through TMEM175 (baseline TMEM175 current, I0). We then rinsed the sensor with non-activating solution containing the compound at a given concentration, followed by incubation of 15 min to equilibrate the sensors with the compound. Subsequently, the solution exchange from 50 mM NaCl to 50 mM KCl is repeated twice, but in the presence of the given compound concentration to determine the modulated peak current I. Afterwards, we repeated the measurement in the absence of the compound three times (wash-out) to recover the non-modulated TMEM175 current. We subtracted the average artifact current recorded with control lysosomes from I and I0 (Figure 1K), without considering off-target effects of the tested compound. […] Success rates were determined based on the QC criteria provided in the Methods section. […] We determined average values, AVGpos and AVGneg, and standard deviations, SDpos and SDneg, of the recorded peak currents. […] Error bars represent the SEM obtained from automated data analysis using DataControl96, based on variations of the currents obtained with the TMEM175 sample. Each compound concentration was recorded with at least N = 8 sensors. […] Imin was always fixed to 0 for inhibitors or 1 for enhancers, as indicated. […] A total of 50 µL of 0.1 mM octadecanethiol in isopropanol was added to each sensor well, following incubation for 30 min at room temperature to form an alkanethiol monolayer on the sensor surface. Subsequently, the sensors were washed twice with isopropanol and three times with ddH2O, before dry-tapping on a tissue. The subsequent process of sensor coating with lipid and lysosomes was carried out manually for the SURFE^2R N1 and automated with the SURFE^2R 96SE serving as a pipetting robot. In both cases, 1.5 µL of 7.5 mg/mL 1,2-diphytanoyl-sn-glycero-3-phosphocholine (DPhPC) in n-decane was added to the center of the circular gold surface, followed by the addition of 50 µL of non-activating solution to form the SSM. The composition of the non-activating solution was adjusted for each experiment (Table 2). […] SSM-coated 96-well sensor plates were stored at −80 °C before use.

Experiment [2] concerns the target T1, TMEM175. Kind of experiment: Whole-cell automated patch-clamp (APC) Cs+ flux assay, SyncroPatch 384i, HEK293 overexpressing TMEM175. It is filed as cell-based. The method, then:
To validate the APC assay, we compared currents between TMEM175-overexpressing cells and control HEK293 UT cells. […] In our compound application protocol, which was used to evaluate compound potencies, we consistently administered tool compounds to assess their impact on TMEM175 activity (Figure 7C).
The voltage protocol generation and data collection were performed with PatchControl384 v1.9.0 and analyzed with DataControl384 v2.2.0. A multi-hole, medium resistance chip with four patch-clamp holes per well was used for recording.
DMSO remained constant at 0.2% and BSA at 0.05% in the external solution throughout the assay, if not stated otherwise.
The voltage protocol applied for the investigation of the tool compounds (Figure 7) consisted of a 500 ms ramp from −80 mV to +80 mV, followed by a 400 ms step from −80 mV to +80 mV before returning to the holding potential of 0 mV (Figure 7B). The maximum outward current amplitude obtained at +80 mV from the ramp section was used for analysis. To investigate the blinded test compounds (Figure 8), an alternative voltage protocol was applied. […] The maximum outward current amplitude obtained at 0 mV from the voltage step section was used for analysis. In both voltage protocols, voltage sweeps were repeated every 10 s and currents sampled at 10 kHz.
The application protocol for agonists consisted of two additions of extracellular physiological solution for a minimum of 3 min, followed by the external application of the test compound for a minimum of 2 min (Figure 7C).
Currents recorded after compound addition were normalized to the baseline current before compound addition, averaged, and plotted over the compound concentration to determine the EC50 and IC50 values.
On the technique in general: The patch-clamp technique gives a direct electrical read-out from membranes.

The subject of experiment [3] is TMEM175. Particulars: 100 µM, whole-cell configuration, +80 mV; ref [6]; cited from earlier work.
In experiment [4] the target is T1, TMEM175. The experiment in a line: SSME H+ flux assay (pH jumps) on TMEM175 lysosomes (SURFE2R N1). It is filed as biochemical. The settings on record: corresponding to ~pH 5; read-out: EC50 of H+ influx current vs Δc(H+). An excerpt:
To further investigate the capability of TMEM175 to translocate protons using SSME, we performed H^+ concentration or pH jumps using the SURFE^2R N1. The non-activating solution was set to pH 7.6, defining both the lysosomal and cytosolic pH before the start of the experiment. By exchanging the non-activating for the activating solution, we acidified the cytosolic solution and stimulated H^+ influx through TMEM175 (Figure 5A).
However, the application of pH jumps lead to significant artifact currents of positive magnitude, as observed with the control lysosomes (Figure 5C). These artifacts are a result of protons interacting with the lipid membranes and/or unknown H^+ leak pathways through the lysosomal membrane. To conclude pure TMEM175-related H^+ currents, we subtracted the artifact currents from the currents recorded with the TMEM175 sample. When plotting ΔpH against the artifact-corrected average TMEM175 net H^+ current, we obtain a close-to-linear correlation (Figure 5D).
For comparison with the I/c curve reported for K^+ (Figure 3E), we calculated the difference in H^+ concentration across the lysosomal membrane Δc = cH^out − cH^in, which correlates linearly with the passive H^+ flux J = PH+Δc according to Fick’s law.
We used H^+ concentration or pH jumps to measure H^+ flux through TMEM175. Non-activating solution was set to pH 7.6, while activating solution contained different pH values between pH 7.4 and pH 4.6; (B) Representative current traces induced by pH jumps on lysosomes overexpressing TMEM175. All current traces were recorded with the same sensor, starting from the lowest ΔpH. […] The remaining current mostly reflects the background (artifact) current after full block of TMEM175; (C) Representative current traces from the same experiment on control lysosomes. […] This represents the artifact current also underlying the currents recorded with the TMEM175 sample; (D) SEM and average, artifact-corrected, normalized peak currents from N = 4 sensors, reflecting the H^+ flux through TMEM175, solely driven by the pH gradient. […]

Here are results for 2 molecules from PMC10454728, “A Comparative Study on the Lysosomal Cation Channel TMEM175 Using Automated Whole-Cell Patch-Clamp, Lysosomal Patch-Clamp, and Solid Supported Membrane-Based Electrophysiology: Functional Characterization and High-Throughput Screening Assay Development” (International Journal of Molecular Sciences, 2023).

Values joined by “and” are separate entries in the source; they are usually repeats but may differ in a detail not shown here. Equal values may be shown once. “Also recorded” adds a separate entry of the source.

As for `CCCCC/C=C\C/C=C\C/C=C\C/C=C\CCCC(=O)O` [Arachidonic Acid, arachidonic acid], on TMEM175 [1] (EC50 APC / EC50 SSME), the “Potency in SSME relative to APC (more potent in SSME)” value is given as 40 fold. Also, the “Relative current / maximum potentiation, SSME” value was 168 ± 5% (50 µM) at TMEM175 [1] and 168 ± 5% at TMEM175 [1] (listed as arachidonic acid). For the same molecule, the EC50 on TMEM175 [1] (tool enhancers, K+ flux, 50 mM K+ jump, pH 7.6, 0 mV, artifact-corrected, read-out: Half saturation (EC50), SSME) was 2.3 µM and 2.25 µM; on TMEM175 [2] (tool compounds, Cs+ flux, outward current at +80 mV, 0.05% BSA, read-out: Half saturation (EC50), APC) it was 83 µM. The “Relative current, APC” value at TMEM175 [2] (enhancer, (30 µM), relative to baseline current (100%)) is 137 ± 6% (30 µM). Also, the “EC50 and maximum potentiation in the absence of BSA, APC” value at TMEM175 [2] (no BSA vs 0.05% BSA) was “did not affect; also recorded: unaltered”. Further, the “Maximum potentiation (increase in TMEM175 activity), APC” value on TMEM175 [2] (standard assay with 0.05% BSA) is 34%. Besides, the “Increase in K+ flux through TMEM175, literature” value in the experiment with TMEM175 [3] was 14 fold.

Regarding `[H+]` [H^+], on TMEM175 [4], the EC50 came out at 9.5 µM.
